Assay results: paper PMC6364417, “Kinase inhibitor library screening identifies synergistic drug combinations effective in sensitive and resistant melanoma cells” (Journal of Experimental & Clinical Cancer Research : CR, 2019)

Legend:
Assay in all cases: Kinase inhibitor library screening, PrestoBlue cell viability, 1 or 10 μM, 72 h
[1] = tested on: IGR37-GP cells (Dabrafenib-resistant); conditions: IGR37 GP, 72 h; for Cell viability in kinase inhibitor library screening, IGR37 GP, 1μΜ / cell viability, IGR37 GP, 1μΜ: in %
[2] = tested on: 501Mel-GP cells (Dabrafenib-resistant); conditions: 501Mel GP, 72 h, in %
[3] = tested on: A375-XP cells (Vemurafenib-resistant); conditions: A375 XP, 72 h; for cell viability, A375 XP, 1μΜ / cell viability, A375 XP, 10μΜ: in %
[4] = tested on: A375-GP cells (Dabrafenib-resistant); conditions: A375 GP, 72 h; for cell viability, A375 GP, 10μΜ: in %
501Mel cells (parental) = conditions: 501Mel Parental, 72 h, in %
Procedure, shortened: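 Values are % viability versus untreated wells, measured by PrestoBlue after a 72 h drug exposure. Screens covered the parental line plus sublines rendered resistant to Vemurafenib or Dabrafenib, each analysed in at least duplicate.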

IGR37 cells (parental) = conditions: IGR37 Parental, 72 h, in %
[5] = tested on: IGR37-XP cells (Vemurafenib-resistant); conditions: IGR37 XP, 72 h; for Cell viability in kinase inhibitor library screening, IGR37 XP, 1μΜ / cell viability, IGR37 XP, 1μΜ: in %
[6] = tested on: 501Mel-XP cells (Vemurafenib-resistant); conditions: 501Mel XP, 72 h, in %
A375 cells (parental) = conditions: A375 Parental, 72 h

Row | SMILES | Cell viability in kinase inhibitor library screening, IGR37 GP, 10μΜ [1] | Cell viability in kinase inhibitor library screening, IGR37 GP, 1μΜ [1] | Cell viability in kinase inhibitor library screening, 501Mel GP, 1μΜ ([2]; 1μΜ) | Cell viability in kinase inhibitor library screening, 501Mel GP, 10μΜ [2] | Cell viability in kinase inhibitor library screening, A375 XP, 1μΜ [3] | Cell viability in kinase inhibitor library screening, A375 XP, 10μΜ [3] | Cell viability in kinase inhibitor library screening, A375 GP, 1μΜ [4] | Cell viability in kinase inhibitor library screening, A375 GP, 10μΜ [4] | Cell viability in kinase inhibitor library screening, 501Mel Parental, 1μΜ (501Mel cells (parental)) | Cell viability in kinase inhibitor library screening, 501Mel Parental, 10μΜ (501Mel cells (parental)) | Cell viability in kinase inhibitor library screening, IGR37 Parental, 1μΜ (IGR37 cells (parental)) | Cell viability in kinase inhibitor library screening, IGR37 Parental, 10μΜ (IGR37 cells (parental)) | Cell viability in kinase inhibitor library screening, IGR37 XP, 10μΜ [5] | Cell viability in kinase inhibitor library screening, IGR37 XP, 1μΜ [5] | Cell viability in kinase inhibitor library screening, 501Mel XP, 1μΜ [6] | Cell viability in kinase inhibitor library screening, 501Mel XP, 10μΜ [6] | Cell viability in kinase inhibitor library screening, A375 Parental, 10μΜ (A375 cells (parental)) | Cell viability in kinase inhibitor library screening, A375 Parental, 1μΜ (A375 cells (parental); 1μΜ) | cell viability, IGR37 GP, 10μΜ [1] | cell viability, IGR37 GP, 1μΜ [1] | further results
1 | CCCS(=O)(=O)Nc1ccc(F)c(C(=O)c2c[nH]c3ncc(-c4ccc(Cl)cc4)cc23)c1F [Vemurafenib (PLX4032)] | 88.3% | 94.0 | 104.7 | 81.3 | 98.7 | 76.6 | 92.1 | 68.9 | 65.5 | 61.7 | 43.2 | 34.4 | 67.9% | 97.0 | 94.9 | 68.0 | 14.6 | 28.6 | – | – | –
2 | Nc1ccc(C(=O)Nc2cccc(-c3nc(N4CCOCC4)c4oc5ncccc5c4n3)c2)cn1 [YM201636] | 3.3% | 56.3 | – | 31.8 | 100.1 | 52.8 | 96.0 | 53.2 | – | 44.1 | 90.0 | 53.4 | 1.2% | 35.0 | 91.0 | 17.1 | 56.6 | 99.8 | – | – | –
3 | Cc1c(NC(=O)OC[C@@H]2COCCN2)cn2ncnc(Nc3ccc4c(cnn4Cc4cccc(F)c4)c3)c12 [BMS-599626 (AC480)] | – | – | – | – | – | – | – | – | – | – | – | – | – | – | – | – | – | – | 75% | 95.5 | cell viability, 501Mel GP, 1μΜ ([2]; 1μΜ): 106.6; cell viability, 501Mel GP, 10μΜ [2]: 91.5; cell viability, A375 XP, 1μΜ [3]: 107.8; cell viability, A375 XP, 10μΜ [3]: 91.0; cell viability, A375 GP, 10μΜ [4]: 84.2; cell viability, 501Mel Parental, 1μΜ (501Mel cells (parental)): 99.1; cell viability, 501Mel Parental, 10μΜ (501Mel cells (parental)): 87.7; cell viability, IGR37 Parental, 1μΜ (IGR37 cells (parental)): 109.0; cell viability, IGR37 Parental, 10μΜ (IGR37 cells (parental)): 92.5; cell viability, IGR37 XP, 10μΜ [5]: 48.2%; cell viability, IGR37 XP, 1μΜ [5]: 96.7; cell viability, 501Mel XP, 1μΜ [6]: 93.0; cell viability, 501Mel XP, 10μΜ [6]: 61.8; cell viability, A375 Parental, 1μΜ (A375 cells (parental); 1μΜ, in %): 103.3; cell viability, A375 Parental, 10μΜ (A375 cells (parental); in %): 84.6
4 | Cc1ccc(F)c(NC(=O)Nc2ccc(-c3cccc4[nH]nc(N)c34)cc2)c1 [Linifanib (ABT-869)] | 52.4% | – | 106.7 | 11.3 | 110.5 | 59.8 | 102.6 | 38.3 | 98.1 | – | 99.9 | 60.3 | 30.7% | 102.6 | – | 3.8 | 46.3 | 106.9 | – | – | –
5 | CN1CCN(c2cccc(Nc3nc4c(-c5ccc(S(C)(=O)=O)cc5)cccn4n3)c2)CC1 [CEP33779] | – | – | – | – | – | – | – | – | – | – | – | – | – | – | – | – | – | – | 67.9% | 93.0 | cell viability, 501Mel GP, 10μΜ [2]: 81.6; cell viability, A375 XP, 1μΜ [3]: 100.1; cell viability, A375 XP, 10μΜ [3]: 88.6; cell viability, A375 GP, 10μΜ [4]: 77.6; cell viability, 501Mel Parental, 1μΜ (501Mel cells (parental)): 94.5; cell viability, 501Mel Parental, 10μΜ (501Mel cells (parental)): 91.1; cell viability, IGR37 Parental, 1μΜ (IGR37 cells (parental)): 103.9; cell viability, IGR37 Parental, 10μΜ (IGR37 cells (parental)): 83.9; cell viability, IGR37 XP, 10μΜ [5]: 28.8%; cell viability, IGR37 XP, 1μΜ [5]: 90.4; cell viability, 501Mel XP, 1μΜ [6]: 88.8; cell viability, 501Mel XP, 10μΜ [6]: 71.8; cell viability, A375 Parental, 10μΜ (A375 cells (parental); in %): 76.5
